Measurements taken from PMC11245619, “Asymmetric total synthesis of polycyclic xanthenes and discovery of a WalK activator active against MRSA” (Nature Communications, 2024).
Values after ≈ are worked out from the molar mass of the structure shown.

Assays:
[1] = test system: T1, Staphylococcus aureus ATCC 29213 (SA29213); assay: microbe, parasite or virus in culture; design: broth microdilution MIC (CLSI), growth inhibition read by MTT; settings: ATCC29213, 24 h, read-out: MIC
T1 construct: ATCC 29213
Description: Antibacterial activities of synthetic compounds in vitro The MICs of the antibacterial agents for all strains were determined using the broth microdilution method according to CLSI guidelines. Wells of 96-well microtiter plates (Nunc, Thermo Fisher Scientific Inc., Roskilde) were inoculated with 100 µL of CAMH broth or CAMH broth with 3% lysed horse blood (S. pneumoniae only), containing serially-diluted antimicrobials and a final inoculum of 5 × 10^5 CFU/mL. The concentration ranges were from 0.0625 to 128 μg/mL for each compound: daptomycin, vancomycin, polymyxin B and oxacillin. The microtiter plates were incubated at 37 °C for 24 h. The MIC was defined as the lowest concentration of an antimicrobial agent that inhibited 90% of bacterial growth determined by the MTT assay (MCE, USA)]. All MIC determinations were performed in duplicate.

[2] = biological target: T2, WalK (erWalK) (Staphylococcus aureus, UniProt Q6GKS6); assay: SPR (Biacore 8K, CM5 chip); assay type: binding
T2 construct: extracellular part of the receptor WalK (erWalK, residues 35-182)

[3] = biological target: T3, WalK (erWalKR86C) (Staphylococcus aureus, UniProt Q6GKS6, R86C); assay: SPR (Biacore 8K, CM5 chip); assay type: binding
T3 construct: erWalK (residues 35-182) with R86C mutation
T3 sequence (Q6GKS6 35-182 R86C): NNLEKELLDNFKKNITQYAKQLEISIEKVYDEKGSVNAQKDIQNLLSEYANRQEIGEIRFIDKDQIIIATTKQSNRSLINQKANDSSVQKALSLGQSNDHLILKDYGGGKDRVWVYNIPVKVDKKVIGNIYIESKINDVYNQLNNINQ

| SMILES | MIC [1] [µg/mL] | Kd [2] [µM] | Kd [3] [µM] |
| --- | --- | --- | --- |
| CC1COc2c(N3CCN(C)CC3)c(F)cc3c(=O)c(C(=O)O)cn1c23 (stereo not drawn) [Ofloxacin] | 0.2 (≈ 0.553 µM) |  |  |
| NC[C@H]1O[C@H](O[C@H]2[C@H](O)[C@@H](O[C@H]3O[C@H](CO)[C@@H](O)[C@H](N)[C@H]3O)[C@H](N)C[C@@H]2N)[C@H](O)[C@@H](O)[C@@H]1O [Kanamycin] | 10 (≈ 20.6 µM) |  |  |
| CN(C)c1cc(NC(=O)CNC(C)(C)C)c(O)c2c1C[C@H]1C[C@H]3[C@H](N(C)C)C(O)=C(C(N)=O)C(=O)[C@@]3(O)C(O)=C1C2=O [Tigecycline] | 0.312 (≈ 0.534 µM) |  |  |
| CC(=O)NC[C@H]1CN(c2ccc(N3CCOCC3)c(F)c2)C(=O)O1 [Linezolid] | 2.5 (≈ 7.41 µM) |  |  |
| CC(C)C(=O)c1c(O)c(C(C2=C(O)C(C)(C)C(=O)C(C)(C)C2=O)C(C)C)c(O)c2c1OC1=C(C(=O)C(C)(C)C(=O)C1(C)C)C2C(C)C (stereo not drawn) [compound 22, 22] | 0.5 (≈ 0.768 µM) | 11.1 | 73.8 |
| C[C@@H](O)[C@H]1C(=O)N2C(C(=O)O)=C(S[C@@H]3CN[C@H](C(=O)N(C)C)C3)[C@H](C)[C@H]12 [Meropenem] | 0.312 (≈ 0.815 µM) |  |  |
| CN[C@H](CC(C)C)C(=O)N[C@H]1C(=O)N[C@@H](CC(N)=O)C(=O)N[C@H]2C(=O)N[C@H]3C(=O)N[C@H](C(=O)N[C@H](C(=O)O)c4cc(O)cc(O)c4-c4cc3ccc4O)[C@H](O)c3ccc(c(Cl)c3)Oc3cc2cc(c3O[C@@H]2O[C@H](CO)[C@@H](O)[C@H](O)[C@H]2O[C@H]2C[C@](C)(N)[C@H](O)[C@H](C)O2)Oc2ccc(cc2Cl)[C@H]1O [Vancomycin] | 1 (≈ 0.69 µM) |  |  |
